Measured values as given in US20120010205A1, “NOVEL QUINOLINE ESTERS USEFUL FOR TREATING SKIN DISORDERS” (Wyeth LLC, priority 2010, published 2012).

Legend:
ABCG1 [1] = experiment: Gene regulation by LXR: ABCG1, human foreskin fibroblasts (serum-free); type: cell-based
human LXRβ = target: T1, human LXRβ (Homo sapiens, UniProt P55055); experiment: Ligand-binding test procedure for human LXRβ (3H T0901317 tracer, flash plates); settings: read-out: hLXRb binding IC50
T1 construct: made in house; host or cells: E. coli
T1 sequence (P55055 1-460): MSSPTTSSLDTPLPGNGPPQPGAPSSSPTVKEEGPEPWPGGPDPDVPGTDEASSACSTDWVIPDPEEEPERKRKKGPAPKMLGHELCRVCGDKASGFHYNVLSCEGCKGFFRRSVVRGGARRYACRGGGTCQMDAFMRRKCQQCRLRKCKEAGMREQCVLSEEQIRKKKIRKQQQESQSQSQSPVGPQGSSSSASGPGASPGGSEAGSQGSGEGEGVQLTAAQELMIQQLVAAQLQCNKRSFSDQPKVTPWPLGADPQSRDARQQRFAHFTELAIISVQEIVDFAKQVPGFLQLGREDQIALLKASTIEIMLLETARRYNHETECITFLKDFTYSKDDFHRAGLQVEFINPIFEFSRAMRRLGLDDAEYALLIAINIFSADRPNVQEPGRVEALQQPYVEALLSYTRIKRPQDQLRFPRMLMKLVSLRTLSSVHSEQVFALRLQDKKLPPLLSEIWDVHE
Experimental: LIGAND-BINDING TEST PROCEDURE FOR HUMAN LXRβ.
Buffer: 100 mM KCl, 100 mM TRIS (pH 7.4 at +4° C.), 8.6% glycerol, 0.1 mM PMSF*, 2 mM MTG*, 0.2% CHAPS (* not used in wash buffer)
Receptor source: E. coli extracted from cells expressing biotinylated hLXRβ. Extract was made in a similar buffer as above, but with 50 mM TRIS.
Washed streptavidin and coated flash plates with wash buffer. Diluted receptor extract to give Bmax˜4000 cpm and add to the wells. Wrapped the plates in aluminum foil and stored them at +4° C. overnight.
Made a dilution series in DMSO of the test ligands. Made a 5 nM solution of the radioactive tracer in buffer. Mixed 250 μL diluted tracer with 5 μL of the test ligand from each concentration of the dilution series. Washed the receptor-coated flash plates. Added 200 μL per well of the ligand/radiolabel mixture to the receptor-coated flash plates. Wrapped the plates in aluminum foil and incubate at +4° C. over night.
Aspirated wells, and washed the flashed plates. Sealed the plate. Measured the remaining radioactivity in the plate.

ABCG1 [2] = experiment: Gene regulation by LXR: ABCG1, KERTr (serum-free); type: cell-based
hLXRa = target: T2, hLXRa (Homo sapiens, UniProt Q13133); experiment: hLXRa binding
T2 sequence (Q13133 1-447): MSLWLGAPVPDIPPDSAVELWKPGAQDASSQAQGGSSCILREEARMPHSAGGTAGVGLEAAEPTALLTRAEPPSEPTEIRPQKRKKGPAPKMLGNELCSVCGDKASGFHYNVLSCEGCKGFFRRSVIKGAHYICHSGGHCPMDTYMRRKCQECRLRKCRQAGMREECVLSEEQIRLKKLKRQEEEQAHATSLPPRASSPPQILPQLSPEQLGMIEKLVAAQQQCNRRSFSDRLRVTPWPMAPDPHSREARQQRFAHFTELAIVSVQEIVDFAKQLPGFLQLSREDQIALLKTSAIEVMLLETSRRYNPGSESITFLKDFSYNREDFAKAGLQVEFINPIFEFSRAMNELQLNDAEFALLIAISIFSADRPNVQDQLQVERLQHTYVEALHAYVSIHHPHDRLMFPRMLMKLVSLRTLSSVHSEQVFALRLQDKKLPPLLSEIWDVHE

Compound | IC50 (human LXRβ) [nM] | EC50 (ABCG1 [2]) [nM] | IC50 (hLXRa) [nM] | EC50 (ABCG1 [1]) [nM] | EC50 (ABCG1 [1]; Fibroblast) [nM]
Cc1ccc(S(C)(=O)=O)cc1C(=O)Oc1cccc(-c2c(C)cnc3c(C(F)(F)F)cccc23)c1 [Example 27, 3-[3-methyl-8-(trifluormethyl)quinolin-4-yl]phenyl 2-methyl-5-(methylsulfonyl)benzoate] | 35 | 99 | 140 | 25 | 
Cc1ccc(S(=O)(=O)N(C)C)cc1C(=O)Oc1cccc(-c2c(C)cnc3c(C(F)(F)F)cccc23)c1 [Example 30, 3-[3-methyl-8-(trifluoromethyl)quinolin-4-yl]phenyl 5-(dimethylsulfamoyl)-2-methylbenzoate] | 235 | 137 | 445 |  | 162
CC(C)c1cnc2c(Cl)cccc2c1-c1cccc(OC(=O)c2ccc(S(=O)(=O)N(C)C)cc2)c1 [Example 34, 3-(8-chloro-3-isopropylquinolin-4-yl)phenyl 4-(dimethylsulfamoyl)benzoate] | 64 | 1.38 | 188 |  | 78
CC(C)c1cnc2c(Cl)cccc2c1-c1cccc(OC(=O)c2cccc(S(=O)(=O)N3CCOCC3)c2)c1 [Example 37, 3-(8-chloro-3-isopropylauinolin-4-yl)phenyl 3-(morpholin-4-ylsulfonyl)benzoate] | 69 | 2.42 | 202 | 60 | 
Cc1ccc(S(=O)(=O)N2CCOCC2)cc1C(=O)Oc1cccc(-c2c(C(C)C)cnc3c(Cl)cccc23)c1 [Example 38, 3-(8-chloro-3-isopropylquinolin-4-yl)phenyl 2-methyl-5-(morpholin-4-ylsulfonyl)benzoate] | 506 | 0.62 | 664 |  | 44

The remaining compounds from weak to strong by IC50 (human LXRβ), led by results:

IC50 (human LXRβ) [nM] | EC50 (ABCG1 [2]) [nM] | IC50 (hLXRa) [nM] | Compound | EC50 (ABCG1 [1]) [nM] | EC50 (ABCG1 [1]; Fibroblast) [nM]
34 | 167 | 154 | Cc1cnc2c(C(F)(F)F)cccc2c1-c1cccc(OC(=O)c2ccc(S(C)(=O)=O)cc2)c1 [Example 29, 3-[3-methyl-8-(trifluoromethyl)quinolin-4-yl]phenyl 4-(methylsulfonyl)benzoate] |  | 250
19 | 214 | 105 | Cc1cnc2c(C(F)(F)F)cccc2c1-c1cccc(OC(=O)c2cc(S(C)(=O)=O)ccc2Cl)c1 [Example 28, 3-[3-methyl-8-(trifluoromethyl)quinolin-4-yl]phenyl 2-chloro-5-(methylsulfonyl)benzoate] |  | 67
5.6 | 0.53 | 8.7 | CC(C)c1cnc2c(Cl)cccc2c1-c1cccc(OC(=O)c2cccc(CS(C)(=O)=O)c2)c1 [Example 35, 3-(8-chloro-3-isopropylauinolin-4-yl)phenyl 3-[(methylsulfonyl)methyl]benzoate] | 11 | 
4.7 | 8.3 | 15 | CC(C)c1cnc2c(Cl)cccc2c1-c1cccc(OC(=O)c2cccc(S(=O)(=O)N(C)C)c2)c1 [Example 33, 3-(8-chloro-3-isopropylauinolin-4-yl)phenyl 3-(dimethylsulfamoyl)benzoate] |  | 55
4.2 | 0.4 | 9.2 | CNS(=O)(=O)c1cccc(C(=O)Oc2cccc(-c3c(C(C)C)cnc4c(Cl)cccc34)c2)c1 [Example 36, 3-(8-chloro-3-isopropylquinolin-4-yl)phenyl 3-(methylsulfamoyl)benzoate] |  | 8
3 | 2.86 | 7.9 | CCS(=O)(=O)c1cccc(C(=O)Oc2cccc(-c3c(-c4ccccc4)cnc4c(Cl)cccc34)c2)c1 [Example 32, 3-(8-chloro-3-phenylquinolin-4-yl)phenyl 3-(ethylsulfonyl)benzoate] |  | 6.8
